Results on three molecules are retold here after article PMC5884648, “Relationship between the agonist activity of synthetic ligands of TRAIL-R2 and their cell surface binding modes” (Oncotarget, 2018).

The target of one assay is T1, human TRAIL-R2 (Homo sapiens, UniProt O14763).
T1 construct: purchased Enzo Life Sciences
Kind of assay: Surface plasmon resonance on sensor-immobilized TRAIL-R2. The note with it: SPR, 25° C, Langmuir model. The class given is binding. On the procedure:
SPR assays were performed on a Biacore T200™, at 25° C. The running buffer was HBS-EP [10 mM HEPES (pH 7.4) containing 0.15 M NaCl, 3.4 mM EDTA and 0.005% (v/v) Tween P20]. The human TRAIL-R2 (Enzo Life Sciences, Farmingdale, NY, USA) receptor was immobilized on a sCM5 sensor chip (GE Healthcare) using the standard amine coupling procedure. The receptors were diluted in 10 mM acetate buffer (pH 5.0) at a concentration of 5 μg/mL. The TRAIL-R2 immobilization level on the sensor chip was 430 RU. Peptides were injected at a flow rate of 5 μL/min for 120 s and allowed to dissociate for an additional 420 s. Surfaces were then regenerated for 5 s with 25 mM HCl. All binding curves were double-referenced (i.e. subtraction of the data of the empty flow cell followed by the subtraction of the data from a running buffer injection cycle).
(§1) Double-referenced SPR binding curves sets were fitted globally using the BIAevaluation 4.1.1 (GE Healthcare Biacore) or TraceDrawer (Ridgeview Diagnostics AB, Uppsala, Sweden) softwares. The signal recorded with the LigandTracer on an empty spot or slide was subtracted from that recorded on cell-carrying slides. The resulting binding curves were analyzed by kinetic distribution analysis using the tool Interaction Map (Ridgeview Diagnostics AB, Uppsala, Sweden). Interaction Map decomposes the kinetic curve recorded for the binding of a homogeneous ligand to a heterogeneous group of targets into its different components. Results are represented as interaction maps (kon versus koff, log scale), where the color of each populated area represents its degree of contribution to the kinetic curve (red = high contribution, blue = low contribution).
Background: SPR reads the build-up and loss of mass on a sensor chip optically.

Assay [1] deals with T2, TRAIL-R2 expressed on HCT116 cells (Homo sapiens, UniProt O14763).
T2 construct: we used BJAB, HCT116 and Jurkat that express a natural level of TRAIL-R2 receptors; endogenous in cells; host or cells: HCT116
T2 sequence (O14763 56-440): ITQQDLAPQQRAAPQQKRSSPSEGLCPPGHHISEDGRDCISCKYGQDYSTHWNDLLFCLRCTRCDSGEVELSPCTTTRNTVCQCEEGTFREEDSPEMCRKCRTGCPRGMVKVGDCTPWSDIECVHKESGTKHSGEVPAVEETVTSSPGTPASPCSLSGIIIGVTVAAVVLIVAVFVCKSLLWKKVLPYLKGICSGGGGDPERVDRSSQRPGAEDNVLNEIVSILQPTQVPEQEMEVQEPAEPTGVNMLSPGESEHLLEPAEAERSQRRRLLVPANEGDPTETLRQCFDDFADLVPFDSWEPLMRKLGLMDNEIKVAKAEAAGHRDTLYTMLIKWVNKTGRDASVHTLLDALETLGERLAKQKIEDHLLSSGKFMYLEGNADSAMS
Briefly: LigandTracer real time binding on living HCT116 cells. The note with it: HCT116 cells expressing TRAIL-R2. How it is done:
The adherent cells HCT116-TRAIL-R2-DEF and HCT116 cells were directly plated on glass slides (Ø20 mm) (10^6 cells/well). The cells in suspension (BJAB and BJAB-TRAIL-R2-DEF) were covalently adhered to glass slides coated with poly-L-lysine (0.1% v/v) (Sigma Aldrich, Saint Louis, MO, USA). The adhesion was strong enough for measurement during 10h. After 24 hours, the slides were fixed with superglue at different locations of a Petri dish, which was inserted in the LigandTracer Green instrument (Ridgeview Instrument AB, Uppsala, Sweden). An empty spot or empty glass slide fixed to the Petri dish was used to record the background signal. This set-up allowed the simultaneous monitoring of the binding of a given peptide to different cell-carrying glass slides fixed to the dish. […] The fluorescence signal is recorded over time when the slide is out of the solution, and therefore corresponds to the amount of bound peptide. […]
Double-referenced SPR binding curves sets were fitted globally using the BIAevaluation 4.1.1 (GE Healthcare Biacore) or TraceDrawer (Ridgeview Diagnostics AB, Uppsala, Sweden) softwares. The signal recorded with the LigandTracer on an empty spot or slide was subtracted from that recorded on cell-carrying slides. The resulting binding curves were analyzed by kinetic distribution analysis using the tool Interaction Map (Ridgeview Diagnostics AB, Uppsala, Sweden). […]

For another assay, the system named is BJAB cells. Kind of assay: Cell viability MTS assay, BJAB. The class given is cell-based, human. The note with it: 24 hours. On the procedure: (§2) BJAB, Jurkat and HCT116 cells (10^5 cells/well) were cultured in 100 µL of culture medium in 96-flat bottom well plates. The next day, cells were treated with the indicated concentrations of the different TRAILmin/DR5 peptides. After 24 hours of treatment cell viability measurement was performed by the MTS assay according to the manufacturer specification (Promega Corporation, Madison, WI, USA).
(Tetrazolium dyes change colour on reduction, which living cells bring about.)

For a further assay, the system named is HCT116 cells. Kind of assay: Cell viability MTS assay, HCT116. The class given is cell-based, human. The note with it: 24 hours. On the procedure:
as §2

For assay [2], the target named is TRAIL-R2 expressed on BJAB cells (Homo sapiens, UniProt O14763). Briefly: LigandTracer real time binding on living BJAB cells. Set-up: expressed in transfected cells. How it is done: The adherent cells HCT116-TRAIL-R2-DEF and HCT116 cells were directly plated on glass slides (Ø20 mm) (10^6 cells/well). The cells in suspension (BJAB and BJAB-TRAIL-R2-DEF) were covalently adhered to glass slides coated with poly-L-lysine (0.1% v/v) (Sigma Aldrich, Saint Louis, MO, USA). The adhesion was strong enough for measurement during 10h. After 24 hours, the slides were fixed with superglue at different locations of a Petri dish, which was inserted in the LigandTracer Green instrument (Ridgeview Instrument AB, Uppsala, Sweden). An empty spot or empty glass slide fixed to the Petri dish was used to record the background signal. This set-up allowed the simultaneous monitoring of the binding of a given peptide to different cell-carrying glass slides fixed to the dish. Three mL of solution (culture medium without or with fluorescent peptide) were added to the dish. In the LigandTracer instrument, the dish is tilted and rotates. Consequently the 3 mL solution covers only the lower part of the dish and each cell-carrying slide is alternatively in contact and out of contact with the solution (at intervals of 8 to 16 s). The fluorescence signal is recorded over time when the slide is out of the solution, and therefore corresponds to the amount of bound peptide. The solution in the dish was initially the culture medium (∼30 min) to provide a stable base line. The fluorescent peptide was then added in increasing doses (10, 30 and 90 nM) every two to three hours. Finally the peptide-containing sample was replaced with fresh medium and the dissociation of the peptide from the cells was followed overnight. The measurements were conducted at room temperature (approximately 20° C).
Chain of TRAIL-R2 expressed on BJAB cells (O14763 56-440): as above
as §1

The next assay concerns the target T3, TRAIL-R2 on HCT116 cells (Homo sapiens, UniProt O14763).
T3 construct: we used BJAB, HCT116 and Jurkat that express a natural level of TRAIL-R2 receptors; endogenous in cells; host or cells: HCT116
Kind of assay: Flow cytometry staining with fluorescent peptides, HCT116. The class given is binding. How it is done:
(§3) 10^6 cells were washed in PBS containing 2% FCS and then incubated at 4° C for 30 min with an anti-TRAIL-R2 antibody (clone BK9 Diaclone, Besançon, France) according to concentration recommended by the manufacturer or with fluorescent peptides at the concentration of 1 µM. After two washes in PBS-2% FBS, TRAIL-R2 expression was monitored by flow cytometry (Guava easyCyte™, Merck Milipore, Darmstadt, Germany) and data were analyzed with InCyte Software (Merck Milipore).
A general note: A flow cytometer gives signals particle by particle.

In another assay the target is T4, TRAIL-R2 on BJAB cells (Homo sapiens, UniProt O14763).
T4 construct: expressed in transfected cells
T4 sequence (O14763 56-440): as above
Briefly: Flow cytometry staining with fluorescent peptides, BJAB. The class given is binding. On the procedure: as §3

*1 amine or outer side, *2 acyl side, *3 side chain or, on linkers, in order; H or OH if unused. Where a SMILES comes first, the peptide text is derived from it. Bridges are numbered along the chain shown (N, C = ends). Roman numbers before positions name the chains, in order. The star is where a group is joined. X1 = CN(CCCC(=O)NC(CCC(=O)[*:1])CCC(=O)[*:2])C(=O)c1ccccc1-c1c2ccc(=N)c(S(=O)(=O)O)c-2oc2c(S(=O)(=O)O)c(N)ccc12; X3 = N=c1ccc2c(-c3cc(C(=O)*)ccc3C(=O)O)c3ccc(N)c(S(=O)(=O)O)c3oc-2c1S(=O)(=O)O Bounds are passed on as bounds.

T1 sequence (O14763 56-440): as above
T3 sequence (O14763 56-440): as above

Usually koff stands for the first-order rate constant of dissociation. A lower koff goes with slow dissociation. A word on the kon: it is the second-order rate constant of association. At human TRAIL-R2, `CC[C@H](C)[C@@H]1NC(=O)[C@H](CCCNC(=N)N)NC(=O)[C@H](CC(N)=O)NC(=O)[C@H](CC(=O)O)NC(=O)[C@H](CC(C)C)NC(=O)[C@@H](NC(=O)[C@H](CC(=O)O)NC(=O)[C@H](Cc2c[nH]c3ccccc23)NC(C)=O)CSSC[C@@H](C(=O)N[C@H](C(=O)N[C@@H](CCCNC(=N)N)C(=O)N[C@@H](CC(C)C)C(N)=O)C(C)C)NC(=O)[C@H](CCC(N)=O)NC(=O)[C@H](CCCNC(=N)N)NC(=O)[C@H](CCCCN)NC(=O)CNC1=O` [2m] (Ac-WDCLDNRIGKRQCVRL-NH2; disulfide 3-13; N-terminus and C-terminus assumed) yielded a koff of 0.016 s⁻¹ and a kon of 3600 M⁻¹ s⁻¹.
Turning to `CC[C@H](C)[C@@H]1NC(=O)[C@H](CCCNC(=N)N)NC(=O)[C@H](CC(N)=O)NC(=O)[C@H](CC(=O)O)NC(=O)[C@H](CC(C)C)NC(=O)[C@@H](NC(=O)[C@H](CC(=O)O)NC(=O)[C@H](Cc2c[nH]c3ccccc23)NC(C)=O)CSSC[C@@H](C(=O)N[C@H](C(=O)N[C@@H](CCCCNC(=O)CCC(CCC(=O)NCCCC[C@H](NC(=O)[C@@H](NC(=O)[C@@H]2CSSC[C@H](NC(=O)[C@H](CC(=O)O)NC(=O)[C@H](Cc3c[nH]c4ccccc34)NC(C)=O)C(=O)N[C@@H](CC(C)C)C(=O)N[C@@H](CC(=O)O)C(=O)N[C@@H](CC(N)=O)C(=O)N[C@@H](CCCNC(=N)N)C(=O)N[C@@H]([C@@H](C)CC)C(=O)NCC(=O)N[C@@H](CCCNC(=N)N)C(=O)N[C@@H](CCCNC(=N)N)C(=O)N[C@@H](CCC(N)=O)C(=O)N2)C(C)C)C(=O)N[C@@H](CC(C)C)C(N)=O)NC(=O)CCCN(C)C(=O)c2ccccc2-c2c3ccc(=N)c(S(=O)(=O)O)c-3oc3c(S(=O)(=O)O)c(N)ccc23)C(=O)N[C@@H](CC(C)C)C(N)=O)C(C)C)NC(=O)[C@H](CCC(N)=O)NC(=O)[C@H](CCCNC(=N)N)NC(=O)[C@H](CCCNC(=N)N)NC(=O)CNC1=O` (stereo partly drawn) [f1d] (I: Ac-WDCLDNRIGRRQCVKL-NH2 / II: Ac-WDCLDNRIGRRQCVKL-NH2; disulfide I:3-I:13, II:3-II:13; linker I:15-II:15 via X1; N-terminus and C-terminus assumed), the cell surface binding result in assay [1] was “bound weakly”; in assay [2] (BJAB cells deficient for TRAIL-R2), “weak signals”; in assay [2] (BJAB cells expressing TRAIL-R2) it was “strong binding”. Besides, in the assay with BJAB cells, the “apoptosis induction in BJAB cells” value is “induced apoptosis”. In addition, the koff at human TRAIL-R2 came to 0.0014 s⁻¹. On human TRAIL-R2, this molecule registered a kon of 22000 M⁻¹ s⁻¹. The “apoptosis induction in HCT116 cells” value in the assay on HCT116 cells is listed as “scarcely induced their apoptosis”. The fluorescent signal reached in assay [2] (BJAB cells that expressed TRAIL-R2, 10, 30 and (f1d) 90 nM) is given as greater than 25. Also, the “binding by flow cytometry” value at TRAIL-R2 on HCT116 cells (HCT116 cells deficient for TRAIL-R2, peptide 1 µM) is “not”; on TRAIL-R2 on HCT116 cells (HCT116 cells expressing TRAIL-R2, peptide 1 µM), “bound”; at TRAIL-R2 on BJAB cells (BJAB cells deficient for TRAIL-R2, peptide 1 µM), “not”; on TRAIL-R2 on BJAB cells (BJAB cells expressing TRAIL-R2, peptide 1 µM), “bound”.
On to `CC[C@H](C)[C@@H]1NC(=O)[C@H](CCCNC(=N)N)NC(=O)[C@H](CC(N)=O)NC(=O)[C@H](CC(=O)O)NC(=O)[C@H](CC(C)C)NC(=O)[C@@H](NC(=O)[C@H](CC(=O)O)NC(=O)[C@H](Cc2c[nH]c3ccccc23)NC(C)=O)CSSC[C@@H](C(=O)N[C@H](C(=O)N[C@@H](CCCCNC(=O)c2ccc(C(=O)O)c(-c3c4ccc(=N)c(S(=O)(=O)O)c-4oc4c(S(=O)(=O)O)c(N)ccc34)c2)C(=O)N[C@@H](CC(C)C)C(N)=O)C(C)C)NC(=O)[C@H](CCC(N)=O)NC(=O)[C@H](CCCNC(=N)N)NC(=O)[C@H](CCCNC(=N)N)NC(=O)CNC1=O` [f1m] (Ac-WDCLDNRIGRRQCVK(X3)L-NH2; disulfide 3-13; N-terminus and C-terminus assumed), for which the “apoptosis induction in BJAB cells” value in the assay with BJAB cells is given as “did not induce apoptosis”. At human TRAIL-R2, this molecule showed a koff of 0.0014 s⁻¹ and a kon of 14000 M⁻¹ s⁻¹. The cell surface binding result in assay [2] (BJAB cells expressing TRAIL-R2) is given as “weak binding”.
